Measurements reported in ChEMBL document CHEMBL4428109, “Structure-activity relationship studies of non-carboxylic acid peroxisome proliferator-activated receptor α/δ (PPARα/δ) dual agonists” (Bioorg Med Chem, 2016).
Activity calls are given as the source filed them. No cut-off for these calls is given here.

Assays:
[1] = molecular target: T1, Peroxisome proliferator-activated receptor alpha (Homo sapiens) (UniProt Q07869); experiment: Agonist activity at N-terminal Gal4 fused human PPARalpha LBD transfected in HEK293 cells at < 10 uM after 24 hrs by luciferase reporter gene assay; type: cell-based
T1 sequence (whole entry): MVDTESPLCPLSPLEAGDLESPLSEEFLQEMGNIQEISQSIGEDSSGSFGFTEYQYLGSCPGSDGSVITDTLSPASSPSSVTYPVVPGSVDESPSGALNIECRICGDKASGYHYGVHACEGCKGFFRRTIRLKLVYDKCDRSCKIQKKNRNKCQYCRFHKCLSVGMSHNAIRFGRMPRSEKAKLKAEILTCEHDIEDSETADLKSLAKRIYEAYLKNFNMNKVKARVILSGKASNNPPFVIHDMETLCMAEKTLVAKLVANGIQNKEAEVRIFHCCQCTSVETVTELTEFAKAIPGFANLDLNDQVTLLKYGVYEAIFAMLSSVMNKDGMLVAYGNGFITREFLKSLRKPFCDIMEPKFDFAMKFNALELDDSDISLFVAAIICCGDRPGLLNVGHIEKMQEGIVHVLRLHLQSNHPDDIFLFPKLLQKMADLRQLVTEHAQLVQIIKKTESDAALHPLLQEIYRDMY

[2] = molecular target: T2, Peroxisome proliferator-activated receptor delta (Homo sapiens) (UniProt Q03181); experiment: Agonist activity at N-terminal Gal4 fused human PPARdelta LBD transfected in HEK293 cells at < 10 uM after 24 hrs by luciferase reporter gene assay; type: cell-based
T2 sequence (whole entry): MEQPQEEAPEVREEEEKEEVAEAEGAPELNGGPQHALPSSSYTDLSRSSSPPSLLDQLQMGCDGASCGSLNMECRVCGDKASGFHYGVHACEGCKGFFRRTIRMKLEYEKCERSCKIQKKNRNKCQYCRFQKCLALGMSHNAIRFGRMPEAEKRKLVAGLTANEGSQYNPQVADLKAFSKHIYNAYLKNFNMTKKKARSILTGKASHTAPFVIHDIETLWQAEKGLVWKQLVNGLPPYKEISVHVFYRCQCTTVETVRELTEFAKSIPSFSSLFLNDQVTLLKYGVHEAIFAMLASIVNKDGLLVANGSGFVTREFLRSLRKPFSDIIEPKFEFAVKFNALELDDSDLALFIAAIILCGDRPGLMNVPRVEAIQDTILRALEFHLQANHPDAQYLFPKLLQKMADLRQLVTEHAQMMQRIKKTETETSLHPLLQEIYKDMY

[3] = molecular target: T3, Peroxisome proliferator-activated receptor gamma (Homo sapiens) (UniProt P37231); experiment: Agonist activity at N-terminal Gal4 fused human PPARgamma LBD transfected in HEK293 cells at < 10 uM after 24 hrs by luciferase reporter gene assay; type: cell-based
T3 sequence (whole entry): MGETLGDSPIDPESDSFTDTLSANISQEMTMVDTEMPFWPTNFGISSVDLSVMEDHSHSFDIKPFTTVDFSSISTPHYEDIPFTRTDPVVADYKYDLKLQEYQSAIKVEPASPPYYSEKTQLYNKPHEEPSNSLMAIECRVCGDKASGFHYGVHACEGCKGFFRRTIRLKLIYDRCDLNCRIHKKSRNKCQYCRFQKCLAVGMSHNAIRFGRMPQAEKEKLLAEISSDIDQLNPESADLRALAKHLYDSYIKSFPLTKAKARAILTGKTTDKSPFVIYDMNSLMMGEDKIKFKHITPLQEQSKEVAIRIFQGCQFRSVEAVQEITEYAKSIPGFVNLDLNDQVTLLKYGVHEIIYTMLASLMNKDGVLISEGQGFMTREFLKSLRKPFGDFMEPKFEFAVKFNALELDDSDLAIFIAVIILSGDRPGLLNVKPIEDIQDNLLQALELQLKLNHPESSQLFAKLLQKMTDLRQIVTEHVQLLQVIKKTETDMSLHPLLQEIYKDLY

[4] = molecular target: T4, Peroxisome proliferator-activated receptor alpha (Homo sapiens, UniProt Q07869); experiment: Agonist activity at N-terminal Gal4 fused human PPARalpha LBD transfected in HEK293 cells after 24 hrs by luciferase reporter gene assay; type: cell-based
T4 sequence (Q07869 whole entry): T1 sequence (whole entry)

[5] = molecular target: T5, Peroxisome proliferator-activated receptor delta (Homo sapiens, UniProt Q03181); experiment: Agonist activity at N-terminal Gal4 fused human PPARdelta LBD transfected in HEK293 cells after 24 hrs by luciferase reporter gene assay; type: cell-based
T5 sequence (Q03181 whole entry): T2 sequence (whole entry)

[6] = molecular target: T1, Peroxisome proliferator-activated receptor alpha (Homo sapiens); experiment: Agonist activity at N-terminal Gal4 fused human PPARalpha LBD transfected in HEK293 cells after 24 hrs by luciferase reporter gene assay relative to GW7647; type: cell-based
[7] = molecular target: T2, Peroxisome proliferator-activated receptor delta (Homo sapiens); experiment: Agonist activity at N-terminal Gal4 fused human PPARdelta LBD transfected in HEK293 cells after 24 hrs by luciferase reporter gene assay relative to GW501516; type: cell-based
[8] = molecular target: T6, Retinoic acid receptor RXR-alpha (Homo sapiens) (UniProt P19793); experiment: Agonist activity at RXRalpha (unknown origin) at < 20 uM
T6 sequence (whole entry): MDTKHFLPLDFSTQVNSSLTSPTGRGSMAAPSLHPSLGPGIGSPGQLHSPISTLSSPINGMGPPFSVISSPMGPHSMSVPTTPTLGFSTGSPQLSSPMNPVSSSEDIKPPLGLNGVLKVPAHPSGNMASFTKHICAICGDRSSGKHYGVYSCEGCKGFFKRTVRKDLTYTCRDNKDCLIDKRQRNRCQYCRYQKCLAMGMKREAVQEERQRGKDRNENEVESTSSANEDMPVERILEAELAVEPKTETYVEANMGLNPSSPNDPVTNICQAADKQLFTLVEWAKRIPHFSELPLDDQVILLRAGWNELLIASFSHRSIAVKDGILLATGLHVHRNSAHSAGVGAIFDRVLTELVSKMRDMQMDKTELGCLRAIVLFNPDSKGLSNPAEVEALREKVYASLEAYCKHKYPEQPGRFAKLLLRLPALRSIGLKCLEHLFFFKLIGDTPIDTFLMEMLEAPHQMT

[9] = molecular target: T7, Retinoic acid receptor RXR-beta (Homo sapiens) (UniProt P28702); experiment: Agonist activity at RXRbeta (unknown origin) at < 20 uM
T7 sequence (whole entry): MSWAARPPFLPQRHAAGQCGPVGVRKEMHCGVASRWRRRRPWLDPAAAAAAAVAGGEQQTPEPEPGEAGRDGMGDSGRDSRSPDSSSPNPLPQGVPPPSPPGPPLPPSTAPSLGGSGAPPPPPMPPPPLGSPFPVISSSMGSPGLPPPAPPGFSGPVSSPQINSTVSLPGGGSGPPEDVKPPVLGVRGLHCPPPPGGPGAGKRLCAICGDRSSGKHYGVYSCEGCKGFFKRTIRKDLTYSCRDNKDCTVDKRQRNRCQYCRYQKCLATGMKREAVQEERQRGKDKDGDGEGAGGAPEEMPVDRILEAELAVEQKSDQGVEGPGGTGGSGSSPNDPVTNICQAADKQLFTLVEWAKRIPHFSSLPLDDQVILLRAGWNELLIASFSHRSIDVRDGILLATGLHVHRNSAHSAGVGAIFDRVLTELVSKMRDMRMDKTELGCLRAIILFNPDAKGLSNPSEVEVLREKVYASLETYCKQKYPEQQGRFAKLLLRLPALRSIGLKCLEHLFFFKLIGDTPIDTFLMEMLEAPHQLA

[10] = molecular target: T8, Retinoic acid receptor RXR-gamma (Homo sapiens) (UniProt P48443); experiment: Agonist activity at RXRgamma (unknown origin) at < 20 uM
T8 sequence (whole entry): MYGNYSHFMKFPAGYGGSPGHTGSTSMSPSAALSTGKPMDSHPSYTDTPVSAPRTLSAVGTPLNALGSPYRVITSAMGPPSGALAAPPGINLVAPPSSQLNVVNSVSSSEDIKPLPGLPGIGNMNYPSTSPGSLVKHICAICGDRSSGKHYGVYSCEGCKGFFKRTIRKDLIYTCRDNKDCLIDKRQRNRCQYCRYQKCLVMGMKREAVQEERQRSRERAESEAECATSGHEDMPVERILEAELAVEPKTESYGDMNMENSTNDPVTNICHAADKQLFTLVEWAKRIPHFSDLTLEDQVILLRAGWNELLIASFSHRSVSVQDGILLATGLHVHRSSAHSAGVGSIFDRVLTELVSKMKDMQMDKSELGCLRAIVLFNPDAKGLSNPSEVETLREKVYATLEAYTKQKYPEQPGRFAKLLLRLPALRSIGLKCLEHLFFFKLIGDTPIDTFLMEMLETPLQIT

[11] = molecular target: T9, Oxysterols receptor LXR-alpha (Homo sapiens) (UniProt Q13133); experiment: Agonist activity at LXRalpha (unknown origin) at < 20 uM
T9 sequence (whole entry): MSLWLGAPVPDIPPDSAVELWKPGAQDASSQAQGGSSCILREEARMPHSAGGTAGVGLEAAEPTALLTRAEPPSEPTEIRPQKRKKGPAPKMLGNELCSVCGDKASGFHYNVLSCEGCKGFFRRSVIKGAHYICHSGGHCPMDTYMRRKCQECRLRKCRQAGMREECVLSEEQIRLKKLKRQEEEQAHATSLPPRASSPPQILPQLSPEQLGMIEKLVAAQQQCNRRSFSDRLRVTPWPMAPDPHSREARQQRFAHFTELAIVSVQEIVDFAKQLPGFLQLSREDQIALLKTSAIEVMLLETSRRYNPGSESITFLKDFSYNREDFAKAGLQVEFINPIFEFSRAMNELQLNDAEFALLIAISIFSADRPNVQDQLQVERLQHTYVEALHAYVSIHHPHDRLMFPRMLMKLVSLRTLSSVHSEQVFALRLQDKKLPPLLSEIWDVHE

[12] = molecular target: T10, Oxysterols receptor LXR-beta (Homo sapiens) (UniProt P55055); experiment: Agonist activity at LXRbeta (unknown origin) at < 20 uM
T10 sequence (whole entry): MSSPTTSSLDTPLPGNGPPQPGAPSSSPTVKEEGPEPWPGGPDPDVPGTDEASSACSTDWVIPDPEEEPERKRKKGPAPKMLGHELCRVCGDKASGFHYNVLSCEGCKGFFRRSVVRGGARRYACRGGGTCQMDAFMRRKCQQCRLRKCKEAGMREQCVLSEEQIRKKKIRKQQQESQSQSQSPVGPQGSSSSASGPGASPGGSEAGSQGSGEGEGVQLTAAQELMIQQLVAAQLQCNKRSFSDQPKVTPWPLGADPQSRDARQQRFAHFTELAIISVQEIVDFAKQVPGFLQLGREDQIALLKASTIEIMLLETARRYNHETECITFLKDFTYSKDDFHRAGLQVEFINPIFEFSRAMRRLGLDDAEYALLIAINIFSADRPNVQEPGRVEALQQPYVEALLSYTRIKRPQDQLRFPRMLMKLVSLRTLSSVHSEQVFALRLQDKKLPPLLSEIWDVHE

[13] = molecular target: T11, Bile acid receptor (Homo sapiens) (UniProt Q96RI1); experiment: Agonist activity at FXR (unknown origin) at < 20 uM
T11 sequence (whole entry): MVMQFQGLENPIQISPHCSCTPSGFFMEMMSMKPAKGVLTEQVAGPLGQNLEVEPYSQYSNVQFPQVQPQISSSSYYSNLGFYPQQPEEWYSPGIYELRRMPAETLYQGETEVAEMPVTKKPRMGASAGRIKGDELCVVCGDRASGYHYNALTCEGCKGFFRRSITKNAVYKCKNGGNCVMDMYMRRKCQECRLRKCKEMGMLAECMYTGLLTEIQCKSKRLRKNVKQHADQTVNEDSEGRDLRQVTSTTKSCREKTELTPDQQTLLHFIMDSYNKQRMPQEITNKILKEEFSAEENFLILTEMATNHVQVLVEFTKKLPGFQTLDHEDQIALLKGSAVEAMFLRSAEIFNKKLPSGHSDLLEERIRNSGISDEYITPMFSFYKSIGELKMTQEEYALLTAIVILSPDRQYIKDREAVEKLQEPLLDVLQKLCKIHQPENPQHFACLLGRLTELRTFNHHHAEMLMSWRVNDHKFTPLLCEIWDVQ

## CC(NC(=O)OC(C)(C)C)c1nc(-c2ccc(Oc3ccc(OCc4ccccc4)cc3)cc2)no1 (stereo not given)
[1]
  Activity: inactive

## CC(=O)N(C)Cc1nc(-c2ccc(Oc3ccc(OCc4ccccc4)cc3)cc2)no1
[1]
  Activity: inactive
[2]
  Activity: inactive
[3]
  Activity: inactive

## COC(=O)NC(C)c1nc(-c2ccc(Oc3ccc(OCc4ccccc4)cc3)cc2)no1 (stereo not given)
[4]
  EC50: 0.1 µM
[5]
  EC50: 0.29 µM
[3]
  Activity: inactive
[6]
  Emax: 10 to 40%
[7]
  Emax: 5 to 15%

## CCC(NC(C)=O)c1nc(-c2ccc(Oc3ccc(OCc4ccccc4)cc3)cc2)no1 (stereo not given)
[4]
  EC50: 0.13 µM
[5]
  EC50: 0.11 µM
[3]
  Activity: inactive
[6]
  Emax: 10 to 40%
[7]
  Emax: 5 to 15%

## CC(=O)NC(C)c1nc(-c2ccc(Oc3ccc(O)cc3)cc2)no1 (stereo not given)
[8]
  Activity: inactive
[9]
  Activity: inactive
[10]
  Activity: inactive
[11]
  Activity: inactive
[12]
  Activity: inactive
[13]
  Activity: inactive

## CC(=O)N[C@@H](C)c1nc(-c2ccc(Oc3ccc(OCc4ccccc4)cc3)cc2)no1
[4]
  EC50: 0.017 µM
[5]
  EC50: 0.023 µM
[6]
  Emax: 10 to 40%
[7]
  Emax: 5 to 15%

## COC(=O)NC(C)c1nc(-c2ccc(Oc3ccc(O)cc3)cc2)no1 (stereo not given)
[1]
  Activity: inactive
[2]
  Activity: inactive
[3]
  Activity: inactive

## CC(N)c1nc(-c2ccc(Oc3ccc(OCc4ccccc4)cc3)cc2)no1 (stereo not given)
[1]
  Activity: inactive

## CC(=O)NC(C)(C)c1nc(-c2ccc(Oc3ccc(OCc4ccccc4)cc3)cc2)no1
[1]
  Activity: inactive
[2]
  Activity: inactive
[3]
  Activity: inactive

## CC(=O)N[C@H](C)c1nc(-c2ccc(Oc3ccc(OCc4ccccc4)cc3)cc2)no1
[1]
  Activity: inactive
[2]
  Activity: inactive
[6]
  Emax: 10 to 40%

## CC(=O)NCc1nc(-c2ccc(Oc3ccc(OCc4ccccc4)cc3)cc2)no1
[1]
  Activity: inactive
[2]
  Activity: inactive
[3]
  Activity: inactive

## CC(NC(=O)C(F)(F)F)c1nc(-c2ccc(Oc3ccc(O)cc3)cc2)no1 (stereo not given)
[1]
  Activity: inactive
[2]
  Activity: inactive
[3]
  Activity: inactive

## CC(NC(=O)C(F)(F)F)c1nc(-c2ccc(Oc3ccc(OCc4ccccc4)cc3)cc2)no1 (stereo not given)
[4]
  EC50: 0.1 µM
[5]
  EC50: 0.15 µM
[3]
  Activity: inactive
[6]
  Emax: 10 to 40%
[7]
  Emax: 5 to 15%
